Assay results: patent publication US20210106703A1, “RADIOIMMUNOCONJUGATES IN COMBINATION WITH OTHER DRUGS AS TREATMENT AGAINST NHL” (Nordic Nanovector ASA, priority 2017, published 2021)
Like-named read-outs stand apart in the source and are kept apart here.

B1: Lutetium-177 [^177Lu]-lilotomab satetraxetan (conjugate, chains of the INN, looked up)
VH: EIQLQQSGPELVKPGASVKVSCKASGYSFTDYNMYWVKQSHGKSLEWIGYIDPYNGDTTYNQKFKGKATLTVDKSSSTAFIHLNSLTSEDSAVYYCARSPYGHYAMDYWGQGTSVTVSS
VL: DIVMTQSHKLLSTSVGDRVSITCKASQDVSTAVDWYQQKPGQSPKLLINWASTRHTGVPDRFTGSGSGTDYTLTISSMQAEDLALYYCRQHYSTPFTFGSGTKLEIK
modifications: 177Lu satetraxetan chelator conjugate

What was measured:
RIVA cells = experiment: Real Time Glo viability assay, Betalutin and cell cycle inhibitors (Example 2); assay type: cell-based, human; details: RIVA; for viability at 0.1 µM / viability at 1 µM: Homo sapiens, read-out: Growth inhibition (signal treated/control; 1 = no change)
Description: (§1) Cells were split twice a week 1:3-1:5 depending on cell density. […] Real Time Glo was purchased from Promega. 384 well plates were purchased from Greiner Bio-One.
(§2) Cells were treated for 18-20 h with Betalutin at a final concentration of 1 μg/ml and 2 μg/ml in 6-well cell culture plates with shaking. After treatment, PBS was added to the cells, and the cells pelleted. Cells were first resuspended in 1 ml PBS, then washed twice in PBS and finally diluted in growth medium at the desired concentration. All cell lines were treated at a cell concentration of 2.5*10^6 cells/ml.
(§3) Regardless of cell number the culturing volume was 25 μl. For Real Time Glo, the Cell Viability Substrate and NanoLuc® Enzyme were diluted 1:500 in growth medium, and 25 μL of diluted reagents added to each well. All reagents were equilibrated to 37° C. Cells were incubated with the reaction mix for 1 h at 37° C. before the first measurement of luminescence. Measurements were repeated as often as required within 72 h after adding the reagents. Digitonin was added to cells at 200 μg/ml to record background luminescence of dead cells. A Tecan SPARK 10M plate reader was used to measure luminescence, with an integration time set to 1 sec.
(§4) Growth inhibition was calculated by dividing the luminescence signal of the treated cells by the luminescence signal of the control cells for each day of measurement after start of treatment [Table 1].
(§5) To evaluate effects of the drugs alone [(−)Betalutin] and their combination with Betalutin [(+)Betalutin], we calculated the Z-score for each sample (ZdrugX=1-(+)BetalutindrugX/(−)BetalutindrugX), where (+)BetalutindrugX and (−) BetalutindrugX are the measured luminescence intensity values for drug X in presence and absence of Betalutin, respectively. The calculation of Z-score values separately for each plate enabled comparison of results across plates, despite variations between the plates in overall signal intensity.

U2932 cells = experiment: as above; assay type: cell-based, human; details: for viability at 0.1 µM / viability at 1 µM: Homo sapiens, read-out: Growth inhibition (signal treated/control; 1 = no change); for viability at 0.1 µM: U2932, U2932, drug 100 nM; for viability at 1 µM: U2932, U2932, drug 1 μM
Description: as §1, §2, §3, §4, §5

Ramos tumor xenografts = experiment: Treatment of mice with tumor xenografts; assay type: in vivo, athymic mice; details: Ramos xenograft
Excerpt: Each treatment group included 6-9 mice.

| Molecule | viability at 0.1 µM (RIVA cells; drug 100 nM, +Betalutin, Dy3) [%] | viability at 0.1 µM (RIVA cells; drug 100 nM, +Betalutin, Dy4) [%] | viability at 0.1 µM (RIVA cells; drug 100 nM, +Betalutin, Dy5) [%] | viability at 0.1 µM (RIVA cells; drug 100 nM, +Betalutin, Dy6) [%] | viability at 0.1 µM (RIVA cells; drug 100 nM, −Betalutin, Dy3) [%] | viability at 0.1 µM (RIVA cells; drug 100 nM, −Betalutin, Dy4) [%] | viability at 0.1 µM (RIVA cells; drug 100 nM, −Betalutin, Dy5) [%] | viability at 0.1 µM (RIVA cells; drug 100 nM, −Betalutin, Dy6) [%] | viability at 1 µM (RIVA cells; drug 1 μM, +Betalutin, Dy3) [%] | viability at 1 µM (RIVA cells; drug 1 μM, +Betalutin, Dy4) [%] | viability at 1 µM (RIVA cells; drug 1 μM, +Betalutin, Dy5) [%] | viability at 1 µM (RIVA cells; drug 1 μM, +Betalutin, Dy6) [%] | viability at 1 µM (RIVA cells; drug 1 μM, −Betalutin, Dy3) [%] | viability at 1 µM (RIVA cells; drug 1 μM, −Betalutin, Dy4) [%] | viability at 1 µM (RIVA cells; drug 1 μM, −Betalutin, Dy5) [%] | viability at 1 µM (RIVA cells; drug 1 μM, −Betalutin, Dy6) [%] | viability at 0.1 µM (U2932 cells; (+)Betalutin, Dy3) [%] | viability at 0.1 µM (U2932 cells; (+)Betalutin, Dy4) [%] | viability at 0.1 µM (U2932 cells; (+)Betalutin, Dy5) [%] | viability at 0.1 µM (U2932 cells; (+)Betalutin, Dy6) [%] | further results |
| --- | --- | --- | --- | --- | --- | --- | --- | --- | --- | --- | --- | --- | --- | --- | --- | --- | --- | --- | --- | --- | --- |
| C=CCn1c(=O)c2cnc(Nc3ccc(N4CCN(C)CC4)cc3)nc2n1-c1cccc(C(C)(C)O)n1 [MK-1775] | 49 | 38 | 24 | 23 | 100 | 89 | 94 | 94 | 2 | 1 | 1 | 1 | 8 | 4 | 2 | 1 | 120 | 95 | 85 | 71 | viability at 0.1 µM (U2932 cells; (−)Betalutin, Dy3): 100%; viability at 0.1 µM (U2932 cells; (−)Betalutin, Dy4): 90%; viability at 0.1 µM (U2932 cells; (−)Betalutin, Dy5): 92%; viability at 0.1 µM (U2932 cells; (−)Betalutin, Dy6): 103%; viability at 1 µM (U2932 cells; (+)Betalutin, Dy3): 104%; viability at 1 µM (U2932 cells; (+)Betalutin, Dy4): 94%; viability at 1 µM (U2932 cells; (+)Betalutin, Dy5): 89%; viability at 1 µM (U2932 cells; (+)Betalutin, Dy6): 80%; viability at 1 µM (U2932 cells; (−)Betalutin, Dy3): 86%; viability at 1 µM (U2932 cells; (−)Betalutin, Dy4): 89%; viability at 1 µM (U2932 cells; (−)Betalutin, Dy5): 96%; viability at 1 µM (U2932 cells; (−)Betalutin, Dy6): 115%; Median survival (Ramos tumor xenografts; 250 MBq/kg ^177Lu-lilotomab + 30 mg/kg MK-1775 twice a day, day 1 to 5): 47 days; Tumor growth versus 250 MBq/kg ^177Lu-lilotomab alone (Ramos tumor xenografts; 250 MBq/kg ^177Lu-lilotomab + MK-1775, p=0.001): significantly delayed tumor growth |
| Nc1nc(Nc2ccc(S(N)(=O)=O)cc2)nn1C(=O)c1c(F)cccc1F [JNJ-7706621] | 13 | 8 | 4 | 4 | 89 | 82 | 99 | 89 | 29 | 13 | 4 | 3 | 50 | 31 | 17 | 14 | 83 | 82 | 73 | 72 | Synergy for the combination with Betalutin (RIVA cells; drug 100 nM): Bliss + Z-score; Synergy for the combination with Betalutin (RIVA cells; drug 1 μM): Z-score; viability at 0.1 µM (U2932 cells; (−)Betalutin, Dy3): 90%; viability at 0.1 µM (U2932 cells; (−)Betalutin, Dy4): 91%; viability at 0.1 µM (U2932 cells; (−)Betalutin, Dy5): 107%; viability at 0.1 µM (U2932 cells; (−)Betalutin, Dy6): 116%; viability at 1 µM (U2932 cells; (+)Betalutin, Dy3): 39%; viability at 1 µM (U2932 cells; (+)Betalutin, Dy4): 26%; viability at 1 µM (U2932 cells; (+)Betalutin, Dy5): 16%; viability at 1 µM (U2932 cells; (+)Betalutin, Dy6): 11%; viability at 1 µM (U2932 cells; (−)Betalutin, Dy3): 53%; viability at 1 µM (U2932 cells; (−)Betalutin, Dy4): 36%; viability at 1 µM (U2932 cells; (−)Betalutin, Dy5): 25%; viability at 1 µM (U2932 cells; (−)Betalutin, Dy6): 20%; Synergy for the combination with Betalutin (U2932 cells; U2932, drug 100 nM): Bliss |
| B1 |  |  |  |  |  |  |  |  |  |  |  |  |  |  |  |  |  |  |  |  | Median survival (Ramos tumor xenografts; 250 MBq/kg ^177Lu-lilotomab alone): 40 days |
